The values below come from ChEMBL document CHEMBL1201862, “PubChem BioAssay data set” (2004).

Each structure is given as a SMILES string.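 Test compounds were applied to cells in 96-well plates for 48 hours at 5 doses. GI50: concentration for 50% inhibition of growth.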 Activity calls are given as the source filed them. Cut-off read from the data, not from the text of the source: active = GI50 up to about 1.1 µM and inactive = higher.

Test systems include SW-620; HT-29; DU-145; Hs-578T; M14; SK-MEL-2; OVCAR-4; Malme-3M; SK-MEL-28; SF-539; HOP-92; SK-OV-3; RXF 393; OVCAR-3; TK-10; MDA-MB-435; MDA-N; NCI-H522; SN12C; NCI-H460.
Assay in all cases: inhibition of tumour cell growth, NCI panel, 48 h

For the compound `CCCCCCCCCC(=O)CC(=O)c1c(O)cc(O)cc1O`, the GI50 with SW-620 was 25.6 µM (inactive); in the assay on HT-29 it was 17.1 µM (inactive); in the assay on DU-145, 22.4 µM (inactive); in the assay on Hs-578T, 18.5 µM (inactive); with M14 it was 17.1 µM (inactive); with SK-MEL-2, 17.7 µM (inactive). The GI50 is 16.3 µM (inactive) in the assay on OVCAR-4; 14.4 µM (inactive) with Malme-3M; 23.3 µM (inactive) with SK-MEL-28; 19.5 µM (inactive) in the assay with SF-539; 20 µM (inactive) in the assay with HOP-92; 35 µM (inactive) in the assay with SK-OV-3. Moreover, the GI50 was 11.7 µM (inactive) in the assay with RXF 393; 16.4 µM (inactive) in the assay with OVCAR-3; 30.4 µM (inactive) in the assay on TK-10; 16.9 µM (inactive) in the assay with MDA-MB-435; 16.9 µM (inactive) with MDA-N; 20.2 µM (inactive) with NCI-H522. The GI50 with SN12C was 20.6 µM (inactive).

Take `CCOC(=O)CCC(C(=O)OCC)n1nc2ccc(Nc3c(C)[n+]([O-])c4cc(F)c(OCC)cc4[n+]3[O-])cc2n1` (centres undefined): the GI50 in the assay on SW-620 was > 100 µM (inactive); in the assay on HT-29 it was > 100 µM (inactive); with DU-145 it was > 100 µM (inactive); with Hs-578T, 26.2 µM (inactive); in the assay on M14 it was > 100 µM (inactive); with SK-MEL-2, 50.2 µM (inactive). The GI50 in the assay on OVCAR-4 was 47.6 µM (inactive); in the assay with Malme-3M, > 100 µM (inactive); in the assay with SF-539, 22.5 µM (inactive); with HOP-92, 21.4 µM (inactive); in the assay with SK-OV-3, 31.9 µM (inactive); in the assay with RXF 393 it was 11.6 µM (inactive). For the same compound, the GI50 was > 100 µM (inactive) in the assay on OVCAR-3; 42.7 µM (inactive) in the assay with TK-10; > 100 µM (inactive) in the assay on MDA-MB-435; > 100 µM (inactive) in the assay with MDA-N; 30.8 µM (inactive) in the assay with NCI-H522; 91.2 µM (inactive) in the assay with SN12C. For the same compound, the GI50 with NCI-H460 is 29.3 µM (inactive).

As to `CC(NC(=O)C(C)C(=O)Nc1ccc(C(F)(F)F)cc1)C(N)=O` (centres undefined), the GI50 in the assay with SW-620, in the assay with HT-29, in the assay on DU-145, in the assay with Hs-578T, with M14 and in the assay with SK-MEL-2 was > 100 µM (inactive) in each case. Besides, the GI50 in the assay on Malme-3M, with SF-539, in the assay with HOP-92, in the assay with SK-OV-3, in the assay with RXF 393 and with MDA-MB-435 was > 100 µM (inactive) each time. Further, the GI50 in the assay with MDA-N, with NCI-H522, in the assay with SN12C and with NCI-H460 was > 100 µM (inactive) in each case.

For `CNc1ncnc2c1ncn2C1C=CC(COS(N)(=O)=O)C1` (centres undefined), the GI50 in the assay with SW-620, with HT-29, in the assay on DU-145, with Hs-578T, in the assay on M14 and in the assay on SK-MEL-2 was > 100 µM (inactive) in each case. In addition, the GI50 in the assay on OVCAR-4, in the assay with Malme-3M, in the assay with SK-MEL-28, in the assay with SF-539, in the assay with HOP-92 and with SK-OV-3 was > 100 µM (inactive) in each case. Moreover, the GI50 in the assay on RXF 393, in the assay with OVCAR-3, with MDA-MB-435, with MDA-N, in the assay with NCI-H522 and in the assay on SN12C was > 100 µM (inactive) throughout. The GI50 in the assay on NCI-H460 was > 100 µM (inactive).

As to `CCCN(CCC)C(=S)Sc1nc(C)nc(N2CCN(c3nc(C)nc(SC(=S)N(CCC)CCC)c3[N+](=O)[O-])CC2)c1[N+](=O)[O-]`, the GI50 in the assay with SW-620 was 3.53 µM (inactive); with HT-29 it was 2.07 µM (inactive); in the assay on DU-145, 26.8 µM (inactive); in the assay on Hs-578T, > 63.7 µM (inactive); in the assay with M14, 15.2 µM (inactive); with SK-MEL-2 it was 7.16 µM (inactive). Moreover, the GI50 in the assay with OVCAR-4 is 17.3 µM (inactive); in the assay with Malme-3M it was 18.8 µM (inactive); with SK-MEL-28, 15.3 µM (inactive); in the assay with SF-539, 26.8 µM (inactive); with HOP-92, 15.8 µM (inactive); in the assay on SK-OV-3 it was 56.4 µM (inactive). In addition, the GI50 was 4.19 µM (inactive) in the assay on RXF 393; 20.1 µM (inactive) with TK-10; 4.82 µM (inactive) in the assay with MDA-MB-435; 8.45 µM (inactive) in the assay with MDA-N; 0.316 µM (active) in the assay on NCI-H522; 8.77 µM (inactive) in the assay with SN12C. The GI50 in the assay on NCI-H460 was 23.9 µM (inactive).

Regarding `CC(=O)Nc1ccc(OC/C(N)=N/NC(=O)c2ccncc2)cc1`, the GI50 in the assay with SW-620, in the assay with HT-29, with DU-145, in the assay on Hs-578T, in the assay with M14 and in the assay with SK-MEL-2 was > 100 µM (inactive) throughout. Also, the GI50 in the assay on OVCAR-4, with SK-MEL-28, in the assay on SF-539, with HOP-92, with SK-OV-3 and in the assay on RXF 393 was > 100 µM (inactive) in each case. In addition, the GI50 with OVCAR-3, in the assay on TK-10, in the assay on MDA-MB-435, in the assay with MDA-N, in the assay with NCI-H522 and in the assay with SN12C was > 100 µM (inactive) each time. Further, in the assay with NCI-H460, the GI50 is > 100 µM (inactive).

Turning to `N=C(/C=C/c1ccc(-c2cn3cc(/C=C/C(=N)N4CCOCC4)ccc3n2)cc1)N1CCOCC1`, the GI50 with SW-620, in the assay with DU-145, in the assay with Hs-578T, with M14, with SK-MEL-2 and in the assay with OVCAR-4 was > 100 µM (inactive) in each case. Moreover, the GI50 in the assay with Malme-3M, in the assay with SK-MEL-28, in the assay on SF-539, with HOP-92, with SK-OV-3 and in the assay on RXF 393 was > 100 µM (inactive) throughout. Further, the GI50 with OVCAR-3 was > 100 µM (inactive); in the assay with TK-10, > 100 µM (inactive); in the assay on MDA-MB-435, > 100 µM (inactive); in the assay on MDA-N it was > 100 µM (inactive); with NCI-H522 it was 62.8 µM (inactive); in the assay with SN12C it was > 100 µM (inactive). In the assay with NCI-H460, the GI50 is > 100 µM (inactive).

With `C=CCOc1ccc(C2C(C(=O)OCC)C(=O)CC(C)(O)C2C(=O)OCC)cc1OC` (centres undefined), the GI50 in the assay on SW-620, in the assay on HT-29, in the assay with DU-145, in the assay with Hs-578T, with M14 and with SK-MEL-2 was > 100 µM (inactive) throughout. For the same compound, the GI50 in the assay with OVCAR-4, in the assay on Malme-3M, in the assay with SK-MEL-28, with SF-539, with HOP-92 and in the assay with RXF 393 was > 100 µM (inactive) throughout. The GI50 with OVCAR-3, with TK-10, with MDA-MB-435, in the assay on MDA-N, with NCI-H522 and with SN12C was > 100 µM (inactive) in each case. Moreover, the GI50 with NCI-H460 is > 100 µM (inactive).
